Data set [1] is described as follows: in vitro. As to conditions: male, Sprague-Dawley, rat; for Concentration (μM) of analyte PEA, 0 min / Concentration (μM) of analyte PEA, 10 min / Concentration (μM) of analyte PEA, 20 min / Concentration (μM) of analyte PEA, 30 min / Concentration (μM) of analyte PEA, 60 min / % Remaining of Initial (n = 1), 0 min / % Remaining of Initial (n = 1), 10 min / % Remaining of Initial (n = 1), 20 min / % Remaining of Initial (n = 1), 30 min / % Remaining of Initial (n = 1), 60 min: 1 μM; for % Remaining of Initial (n = 1), 0 min: s9, 0 h; for % Remaining of Initial (n = 1), 10 min: s9, 10 min; for % Remaining of Initial (n = 1), 20 min: s9, 20 min; for % Remaining of Initial (n = 1), 30 min: s9, 0.5 h; for % Remaining of Initial (n = 1), 60 min: s9, 1 h; for microsomal CLint at 1 μM: s9, CLint (mL/min/mg protein); for half-life at 1 μM: s9, Half-life (min). How it is done:
The reaction mixture, minus cofactors, was prepared as described below. The test article was added into the reaction mixture at a final concentration of 1 μM. […] An aliquot of the reaction mixture (without cofactor cocktail) was equilibrated in a shaking water bath at 37° C. for 3 minutes. The reaction was initiated by the addition of cofactor cocktail, and the mixture was incubated in a shaking water bath at 37° C. Aliquots (100 μL) were withdrawn at 0, 10, 20, 30, and 60 minutes. All samples were immediately combined with 400 uL of icecold 50/50 acetonitrile/H2O containing 0.1% formic acid and internal standard to terminate the reaction. The samples were then mixed and centrifuged to precipitate proteins. Calibration standards were prepared in matched matrix. All samples and standards were assayed by LC-MS/MS using electrospray ionization for both the dosed prodrug I-9 and the expected drug (PEA). Analytical conditions are outlined in Appendix 4-1. The test article concentration at each time point was compared to the test article concentration at time 0 to determine the percent remaining at each time point. Half-lives were calculated using GraphPad software, fitting to single-phase exponential decay equation.
(§1) Reaction mixture, minus cofactors, was prepared as described below. Test article was added into the reaction mixture at a final concentration of 1 μM. […] An aliquot of the reaction mixture (without cofactor cocktail) was equilibrated in a shaking water bath at 37° C. for 3 minutes. The reaction was initiated by the addition of cofactor cocktail, and the mixture was incubated in a shaking water bath at 37° C. Aliquots (100 μL) were withdrawn at 0, 10, 20, 30, and 60 minutes. Test article samples were immediately combined with 300 μL of ice-cold acetonitrile containing 1% formic acid. Control samples were immediately combined with 400 μL of ice-cold 50/50 acetonitrile (ACN)/dH2O containing 0.1% formic acid and internal standard to terminate the reaction. Samples were then mixed and centrifuged to precipitate proteins. Calibration standards were prepared in matched matrix. Samples and standards were assayed by LC-MS/MS using electrospray ionization for both the dosed prodrug and the expected drug (PEA). Analytical conditions are outlined in Appendix 8-1. Test article concentration at each time point was compared to test article concentration at time 0 to determine the percent remaining at each time point. Halflives were calculated using GraphPad software, fitting to a single-phase exponential decay equation.
as §1, with “for 5” for “for 3”, “minutes. Reaction” for “minutes. The reaction”, “and” for “and the”, “both” for “both the”, “Appendix 10-1.” for “Appendix 8-1.”
Reaction mixture, minus cofactors, was prepared as described below.

The nature of data set [2]: Plasma stability (37° C., pH 7.4), human. Format: in vitro ADME. As to conditions: for half-life at 1 μM: both sexes, human, plasma, pH 7.4, human plasma; for % Remaining of Initial (n = 1), 0 min / % Remaining of Initial (n = 1), 15 min / % Remaining of Initial (n = 1), 30 min / % Remaining of Initial (n = 1), 60 min / % Remaining of Initial (n = 1), 120 min: human plasma; for % Remaining of Initial (n = 1), 0 min: pH 7.4, 0 min; for % Remaining of Initial (n = 1), 15 min: pH 7.4, 15 min; for % Remaining of Initial (n = 1), 30 min: pH 7.4, 30 min; for % Remaining of Initial (n = 1), 60 min: pH 7.4, 60 min; for % Remaining of Initial (n = 1), 120 min: pH 7.4, 120 min. The method, then: (§2) Studies were carried out in mixed-gender human plasma (Lot #GLP530-5), male Sprague-Dawley rat (Lot #RAT297944, RAT313140), male CD-1 mouse (Lot #MSE237700), and male Beagle dog (Lot #BGL87670, BGL82614), collected on sodium heparin. Plasma was adjusted to pH 7.4 prior to initiating the experiments. DMSO stocks were first prepared for the test articles. Aliquots of the DMSO solutions were dosed into 700 μL of plasma, which had been pre-warmed to 37° C., at a final test article concentration of 1 μM. […] Samples were stored at 4° C. until the end of the experiment. After the final time point was sampled, the plate was mixed and then centrifuged at 3,000 rpm for 10 minutes. Calibration standards were prepared in matched matrix. […] Analytical conditions are outlined in Appendix 8-1.
as §2, with “#AS1650-2),” for “#GLP530-5),”, “#RAT297944),” for “#RAT297944, RAT313140),”, “CD-I” for “CD-1”, “#BGL91384),” for “#BGL87670, BGL82614),”, “10-1.” for “8-1.”
Studies were carried out in mixed-gender human plasma (Lot #AS1650-2), male Sprague-Dawley rat (Lot #RAT297944), male CD-1 mouse (Lot #MSE237700), and male Beagle dog (Lot #BGL91384), collected on sodium heparin. Plasma was adjusted to pH 7.4 prior to initiating the experiments. DMSO stocks were first prepared for test articles. […] Samples were stored at 4° C. until the end of experiment. After the final time point was sampled, the plate was mixed and then centrifuged at 3,000 rpm for 10 minutes. Calibration standards were prepared in matched matrix. […] Analytical conditions are outlined in Appendix 13-1.
Studies were carried out in mixed-gender human plasma (Lot #AS 1650-2), male Sprague-Dawley rat (Lot #RAT320835), male CD-1 mouse (Lot #MSE260693), and 6 male Beagle dog (Lot #BGL91384), on sodium heparin. Plasma was adjusted to pH 7.4 prior to initiating the experiments. DMSO stocks were first prepared for the test articles. Aliquots of the DMSO solutions were dosed into 700 μL of plasma, which had been pre-warmed to 37° C., at a final test article concentration of 1 μM. […] Samples were stored at 4° C. until the end of the experiment. After the final time point was sampled, the plate was mixed and then centrifuged at 3,000 rpm for 10 minutes. Calibration standards were prepared in matched matrix. […] Analytical conditions are outlined in Appendix 17-1.

The mark [3] stands for this setting: test article 1 μM, 37° C., pH 7.4, read-out: Half-life.
Setting [4] is: calculated value beyond duration of experiment, read-out: Half-life (min), calculated half-life in parentheses.

As usually defined, the microsomal CLint is the rate of metabolic loss divided by the concentration. The half-life is the time in which the quantity being followed falls by half. In the case of `CCCCCCCCCCCCCCCC(=O)NCCOC(=O)CCC` [Compound I-2], in data set [1], the “Concentration (μM) of analyte PEA, 0 min” value was 0.69 µM; the “Concentration (μM) of analyte PEA, 10 min” value (shortened to “Concentration (μM) … 10 min”) was 0.63 µM; the “Concentration (μM) of analyte PEA, 20 min” value (from here on “Concentration (μM) … 20 min”) stood at 0.60 µM; the “Concentration (μM) of analyte PEA, 30 min” value (“Concentration (μM) … 30 min” for short) was 0.52 µM. Moreover, in data set [1], the “Concentration (μM) of analyte PEA, 60 min” value (“Concentration (μM) … 60 min” for short) amounted to 0.52 µM; the “% Remaining of Initial (n = 1), 0 min” value is on record as 100%; the “% Remaining of Initial (n = 1), 10 min” value was found to be 35%; the “% Remaining of Initial (n = 1), 20 min” value is less than 1.0%. Also, in data set [1], the “% Remaining of Initial (n = 1), 30 min” value is recorded as less than 1.0%; the “% Remaining of Initial (n = 1), 60 min” value is given as less than 1.0%; the intrinsic metabolic clearance (microsomal CLint) at 1 μM came out at 123 µL/min/mg; the half-life at 1 μM turned out to be 0.0933 h. Moreover, the half-life at 1 μM in data set [2] (setting [3]) is greater than 120 min. Besides, the half-life at 1 μM in data set [2] (setting [4]) is 135 min. Besides, in data set [2] (test article 1 μM, 37° C.), the “% Remaining of Initial (n = 1), 0 min” value is 100%; the “% Remaining of Initial (n = 1), 15 min” value was 96%; the “% Remaining of Initial (n = 1), 30 min” value is 91%; the “% Remaining of Initial (n = 1), 60 min” value was 84%. For the same compound, the “% Remaining of Initial (n = 1), 120 min” value in data set [2] (test article 1 μM, 37° C.) amounted to 51%.

For `CCCCC/C=C\C/C=C\CCCCCCCC(=O)OCCNC(=O)CCCCCCCCCCCCCCC` [Compound I-6], in data set [1], the “Concentration (μM) of analyte PEA, 0 min” value worked out at 0.069 µM; the “Concentration (μM) … 10 min” value amounted to 0.088 µM; the “Concentration (μM) … 20 min” value turned out to be 0.094 µM; the “Concentration (μM) … 30 min” value is 0.10 µM. For the same compound, in data set [1], the “Concentration (μM) … 60 min” value is 0.11 µM; the “% Remaining of Initial (n = 1), 0 min” value is 100%; the “% Remaining of Initial (n = 1), 10 min” value is 78%; the “% Remaining of Initial (n = 1), 20 min” value amounted to 92%. In addition, in data set [1], the “% Remaining of Initial (n = 1), 30 min” value turned out to be 79%; the “% Remaining of Initial (n = 1), 60 min” value amounted to 59%; the microsomal CLint at 1 μM is less than 11.6 µL/min/mg; the half-life at 1 μM is greater than 1 h. Also, the microsomal CLint at 1 μM in data set [1] (calculated value in parentheses) is 7.65 µL/min/mg. Also, the half-life at 1 μM in data set [1] (calculated half-life in parentheses) is 1.52 h. In data set [2] (setting [3]), the half-life at 1 μM is greater than 120 min. Further, the half-life at 1 μM in data set [2] (setting [4]) is 147 min. Moreover, in data set [2] (test article 1 μM, 37° C.), the “% Remaining of Initial (n = 1), 0 min” value turned out to be 100%; the “% Remaining of Initial (n = 1), 15 min” value came to 79%; the “% Remaining of Initial (n = 1), 30 min” value is reported as 102%; the “% Remaining of Initial (n = 1), 60 min” value stood at 74%. In addition, the “% Remaining of Initial (n = 1), 120 min” value in data set [2] (test article 1 μM, 37° C.) was 53%.

Consider `CC/C=C\C/C=C\C/C=C\C/C=C\C/C=C\CCCC(=O)OCCNC(=O)CCCCCCCCCCCCCCC` [Compound I-5], for which, in data set [1], the “Concentration (μM) of analyte PEA, 0 min” value stood at 0.029 µM; the “Concentration (μM) … 10 min” value came to 0.062 µM; the “Concentration (μM) … 20 min” value was determined as 0.099 µM; the “Concentration (μM) … 30 min” value stood at 0.11 µM. In data set [1], the “Concentration (μM) … 60 min” value worked out at 0.18 µM; the “% Remaining of Initial (n = 1), 0 min” value turned out to be 100%; the “% Remaining of Initial (n = 1), 10 min” value stood at 57%; the “% Remaining of Initial (n = 1), 20 min” value came to 48%. In addition, in data set [1], the “% Remaining of Initial (n = 1), 30 min” value was found to be 46%; the “% Remaining of Initial (n = 1), 60 min” value is 44%; the microsomal CLint at 1 μM came to 18.2 µL/min/mg; the half-life at 1 μM came to 0.633 h. The half-life at 1 μM in data set [2] (setting [3]) was greater than 120 min. For the same compound, the half-life at 1 μM in data set [2] (setting [4]) is 195 min. In addition, in data set [2] (test article 1 μM, 37° C.), the “% Remaining of Initial (n = 1), 0 min” value worked out at 100%; the “% Remaining of Initial (n = 1), 15 min” value came to 110%; the “% Remaining of Initial (n = 1), 30 min” value is on record as 81%; the “% Remaining of Initial (n = 1), 60 min” value worked out at 82%. For the same compound, the “% Remaining of Initial (n = 1), 120 min” value in data set [2] (test article 1 μM, 37° C.) is 69%.

In the case of `CCCCCCCCCCCCCCCC(=O)NCCOC(=O)CCC(=O)OCC(COC(=O)CCCCCCC)OC(=O)CCCCCCC` (stereo not drawn) [Compound I-3, PEA-Succinate-Glycerol-Di-Caprylic], in data set [1], the “Concentration (μM) of analyte PEA, 0 min” value turned out to be 0 µM; the “Concentration (μM) … 10 min” value stood at 0.024 µM; the “Concentration (μM) … 20 min” value came to 0.037 µM; the “Concentration (μM) … 30 min” value was found to be 0.047 µM. Moreover, in data set [1], the “Concentration (μM) … 60 min” value is 0.073 µM; the “% Remaining of Initial (n = 1), 0 min” value is reported as 100%; the “% Remaining of Initial (n = 1), 10 min” value was 53%; the “% Remaining of Initial (n = 1), 20 min” value amounted to 46%. In addition, in data set [1], the “% Remaining of Initial (n = 1), 30 min” value amounted to 42%; the “% Remaining of Initial (n = 1), 60 min” value is listed as 31%; the microsomal CLint at 1 μM turned out to be 26.8 µL/min/mg; the half-life at 1 μM came to 0.433 h. Further, in data set [2] (setting [3]), the half-life at 1 μM was greater than 120 min. The half-life at 1 μM in data set [2] (setting [4]) was 211 min. For the same compound, in data set [2] (test article 1 μM, 37° C.), the “% Remaining of Initial (n = 1), 0 min” value stood at 100%; the “% Remaining of Initial (n = 1), 15 min” value is 109%; the “% Remaining of Initial (n = 1), 30 min” value is reported as 84%; the “% Remaining of Initial (n = 1), 60 min” value was 65%. For the same compound, the “% Remaining of Initial (n = 1), 120 min” value in data set [2] (test article 1 μM, 37° C.) was found to be 77%.

The values above are taken from patent US11547681B2, “N-acylethanolamide derivatives and uses thereof” (ELIEM THERAPEUTICS, INC., priority 2016, dated 2023).
